Test results: US11111251B2, “Positive allosteric modulators of the muscarinic acetylcholine receptor M1” (Vanderbilt University, priority 2016, dated 2021)

Target: T1, human mAChR M1 (Homo sapiens, UniProt P11229)
T1 sequence (P11229 1-460): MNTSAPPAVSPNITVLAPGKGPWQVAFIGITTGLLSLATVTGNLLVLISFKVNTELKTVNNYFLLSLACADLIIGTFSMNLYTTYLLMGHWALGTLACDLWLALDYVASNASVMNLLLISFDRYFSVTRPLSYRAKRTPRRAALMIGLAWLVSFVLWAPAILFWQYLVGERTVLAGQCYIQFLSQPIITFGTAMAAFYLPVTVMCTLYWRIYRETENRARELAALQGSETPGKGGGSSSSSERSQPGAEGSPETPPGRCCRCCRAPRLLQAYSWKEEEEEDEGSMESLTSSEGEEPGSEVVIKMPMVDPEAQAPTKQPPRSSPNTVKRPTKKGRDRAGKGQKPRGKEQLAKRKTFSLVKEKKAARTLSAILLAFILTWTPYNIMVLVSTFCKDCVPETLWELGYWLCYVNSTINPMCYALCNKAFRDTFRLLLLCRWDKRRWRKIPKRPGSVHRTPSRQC
Experiment: mAChR M1 cell-based functional assay: calcium mobilization, positive allosteric modulator mode (increase in EC20 acetylcholine response)
Details: Table 2, human M1; for EC50: read-out: Human M1 EC50; for Emax: read-out: Human M1 Emax (%)
Summary of the method: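 PAM potency reflects the concentration-dependent increase in calcium response to an EC20 acetylcholine challenge, given 144 s into a 300 s read after compound addition at 4 s (EC80 follows at 230 s). Cells were hM1-expressing CHO-K1, loaded 50 min with Fluo-4 AM. Curves used 11 points at 1:3 dilutions and four-parameter logistic fitting.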

Compound | EC50 | Emax
Cn1ccc(-c2ccc(Cc3cc(C(=O)NC4CC(F)(F)C4)nc4ccsc34)cn2)n1 [Compound 420, N-(3,3-difluorocyclobutyl)-7-[[6-(1-methylpyrazol-3-yl)-3-pyridyl]methyl]thieno[3,2-b]pyridine-5-carboxamide] | 0.4 µM | 64.2%
Cn1ccc(-c2ccc(Cc3cc(C(=O)NCC4CCN4)nc4ccsc34)cn2)n1 (stereo not drawn) [Compound 421, N-(azetidin-2-ylmethyl)-7-[[6-(1-methylpyrazol-3-yl)-3-pyridyl]methyl]thieno[3,2-b]pyridine-5-carboxamide] | 0.422 µM | 66.9%
Cn1ccc(-c2ccc(Cc3cc(C(=O)N[C@H]4CCCOC4)nc4ccsc34)cn2)n1 [Compound 422, 7-[[6-(1-methylpyrazol-3-yl)-3-pyridyl]methyl]-N-[(3S)-tetrahydropyran-3-yl]thieno[3,2-b]pyridine-5-carboxamide] | 1.62 µM | 71.6%
Cn1ccc(-c2ccc(Cc3cc(C(=O)N[C@@H]4CCCOC4)nc4ccsc34)cn2)n1 [Compound 423] | 0.637 µM | 70.6%
COCC(C)NC(=O)c1cc(Cc2ccc(-c3ccn(C)n3)nc2)c2sccc2n1 (stereo not drawn) [Compound 424, N-(2-methoxy-1-methyl-ethyl)-7-[[6-(1-methylpyrazol-3-yl)-3-pyridyl]methyl]thieno[3,2-b]pyridine-5-carboxamide] | 8.47 µM | 68.6%
Cn1ccc(-c2ccc(Cc3cc(C(=O)NC4CN(C5COC5)C4)nc4ccsc34)cn2)n1 [Compound 425] | 5.14 µM | 65.8%
Cn1ccc(-c2ccc(Cc3cc(C(=O)NC[C@@H]4CCCN4)nc4ccsc34)cn2)n1 [Compound 426] | 0.29 µM | 62.7%
Cn1ccc(-c2ccc(Cc3cc(C(=O)NC[C@H]4CCCN4)nc4ccsc34)cn2)n1 [Compound 427] | 0.316 µM | 64.6%
CCN1CCC[C@H]1CNC(=O)c1cc(Cc2ccc(-c3ccn(C)n3)nc2)c2sccc2n1 [Compound 428] | 1.89 µM | 70.2%
COCCNC(=O)c1cc(Cc2ccc(-n3cccn3)cc2)c2sccc2n1 [Compound 429, N-(2-methoxyethyl)-7-[(4-pyrazol-1-ylphenyl)methyl]thieno[3,2-b]pyridine-5-carboxamide] | 0.597 µM | 72.7%
COCCCNC(=O)c1cc(Cc2ccc(-n3cccn3)cc2)c2sccc2n1 [Compound 430, N-(3-methoxypropyl)-7-[(4-pyrazol-1-ylphenyl)methyl]thieno[3,2-b]pyridine-5-carboxamide] | 1.08 µM | 72.9%
COC1CC(NC(=O)c2cc(Cc3ccc(-n4cccn4)cc3)c3sccc3n2)C1 (stereo not drawn) [Compound 431, N-(3-methoxycyclobutyl)-7-[(4-pyrazol-1-ylphenyl)methyl]thieno[3,2-b]pyridine-5-carboxamide] | 1.48 µM | 69.3%
O=C(NC1CN(CC(F)(F)F)C1)c1cc(Cc2ccc(-n3cccn3)cc2)c2sccc2n1 [Compound 432] | 3.42 µM | 47.5%
O=C(NC1CN(C2COC2)C1)c1cc(Cc2ccc(-n3cccn3)cc2)c2sccc2n1 [Compound 433, N-[1-(oxetan-3-yl)azetidin-3-yl]-7-[(4-pyrazol-1-ylphenyl)methyl]thieno[3,2-b]pyridine-5-carboxamide] | 1.77 µM | 65.4%
CC(C)(C)N1CC(NC(=O)c2cc(Cc3ccc(-n4cccn4)cc3)c3sccc3n2)C1 [Compound 434, N-(1-tert-butylazetidin-3-yl)-7-[(4-pyrazol-1-ylphenyl)methyl]thieno[3,2-b]pyridine-5-carboxamide] | 1.46 µM | 66.2%
CN1CC(NC(=O)c2cc(Cc3ccc(-n4cccn4)cc3)c3sccc3n2)C1 [Compound 435, N-(1-methylazetidin-3-yl)-7-[(4-pyrazol-1-ylphenyl)methyl]thieno[3,2-b]pyridine-5-carboxamide] | 2.29 µM | 76.9%
O=C(NC1CCC1)c1cc(Cc2ccc(-n3cccn3)cc2)c2sccc2n1 [Compound 436, N-cyclobutyl-7-[(4-pyrazol-1-ylphenyl)methyl]thieno[3,2-b]pyridine-5-carboxamide] | 1.5 µM | 69.1%

Compound | EC50 | Emax
O=C(NC1CCCC1=O)c1cc(Cc2ccc(-n3cccn3)cc2)c2sccc2n1 (stereo not drawn) [Compound 437, N-(2-oxocyclopentyl)-7-[(4-pyrazol-1-ylphenyl)methyl]thieno[3,2-b]pyridine-5-carboxamide] | 0.201 µM | 70%
CN1CC(NC(=O)c2cc(Cc3ccc(-n4cccn4)cc3)c3sccc3n2)CC1=O (stereo not drawn) [Compound 438, N-(1-methyl-5-oxo-pyrrolidin-3-yl)-7-[(4-pyrazol-1-ylphenyl)methyl]thieno[3,2-b]pyridine-5-carboxamide] | 2.21 µM | 63.1%
O=C(NC1CCS(=O)(=O)C1)c1cc(Cc2ccc(-n3cccn3)cc2)c2sccc2n1 (stereo not drawn) [Compound 439, N-(1,1-dioxothiolan-3-yl)-7-[(4-pyrazol-1-ylphenyl)methyl]thieno[3,2-b]pyridine-5-carboxamide] | 0.4 µM | 68.1%
O=C(NC1CCOC1)c1cc(Cc2ccc(-n3cccn3)cc2)c2sccc2n1 (stereo not drawn) [Compound 440, 7-[(4-pyrazol-1-ylphenyl)methyl]-N-tetrahydrofuran-3-yl-thieno[3,2-b]pyridine-5-carboxamide] | 1.97 µM | 69.3%
O=C1CC(NC(=O)c2cc(Cc3ccc(-n4cccn4)cc3)c3sccc3n2)CN1 (stereo not drawn) [Compound 441, N-(5-oxopyrrolidin-3-yl)-7-[(4-pyrazol-1-ylphenyl)methyl]thieno[3,2-b]pyridine-5-carboxamide] | 1.48 µM | 63.7%
CN1CCCC(NC(=O)c2cc(Cc3ccc(-n4cccn4)cc3)c3sccc3n2)C1 (stereo not drawn) [Compound 442, N-(1-methyl-3-piperidyl)-7-[(4-pyrazol-1-ylphenyl)methyl]thieno[3,2-b]pyridine-5-carboxamide] | 1.49 µM | 71.8%
CN1CCC(NC(=O)c2cc(Cc3ccc(-n4cccn4)cc3)c3sccc3n2)CC1 [Compound 443, N-(1-methyl-4-piperidyl)-7-[(4-pyrazol-1-ylphenyl)methyl]thieno[3,2-b]pyridine-5-carboxamide] | 1.48 µM | 66.6%
CC1COCCC1NC(=O)c1cc(Cc2ccc(-n3cccn3)cc2)c2sccc2n1 (stereo not drawn) [Compound 444, N-(3-methyltetrahydropyran-4-yl)-7-[(4-pyrazol-1-ylphenyl)methyl]thieno[3,2-b]pyridine-5-carboxamide] | 0.263 µM | 71%
O=C(c1cc(Cc2ccc(-n3cccn3)cc2)c2sccc2n1)N1CC2CC1CO2 (stereo not drawn) [Compound 445, 2-oxa-5-azabicyclo[2.2.1]heptan-5-yl-[7-[(4-pyrazol-1-ylphenyl)methyl]thieno[3,2-b]pyridin-5-yl]methanone] | > 10 µM | 50.7%
CC(NC(=O)c1cc(Cc2ccc(-n3cccn3)cc2)c2sccc2n1)C1CCCO1 (stereo not drawn) [Compound 446, 7-[(4-pyrazol-1-ylphenyl)methyl]-N-(1-tetrahydrofuran-2-ylethyl)thieno[3,2-b]pyridine-5-carboxamide] | 0.922 µM | 72.8%
O=C(NC1CCCOC1)c1cc(Cc2ccc(-n3cccn3)cc2)c2sccc2n1 (stereo not drawn) [Compound 447, 7-[(4-pyrazol-1-ylphenyl)methyl]-N-tetrahydropyran-3-yl-thieno[3,2-b]pyridine-5-carboxamide] | 1.1 µM | 73.9%
O=C(NCc1cc[nH]n1)c1cc(Cc2ccc(-n3cccn3)cc2)c2sccc2n1 [Compound 448, N-(1H-pyrazol-3-ylmethyl)-7-[(4-pyrazol-1-ylphenyl)methyl]thieno[3,2-b]pyridine-5-carboxamide] | 0.795 µM | 67.8%
Cn1ccc2nc(C(=O)NC3CC4(COC4)C3)cc(Cc3ccc(-n4cccn4)cc3)c21 [Compound 449, 1-Methyl-N-(2-oxaspiro[3.3]heptan-6-yl)-7-[(4-pyrazol-1-ylphenyl)methyl]pyrrolo[3,2-b]pyridine-5-carboxamide] | 0.157 µM | 73.1%
Cn1ccc2nc(C(=O)N[C@H]3CCOC[C@@H]3O)cc(Cc3ccc(-c4cscn4)cc3)c21 [Compound 450, N-[(3R,4S)-3-hydroxytetrahydropyran-4-yl]-1-methyl-7-[(4-thiazol-4-ylphenyl)methyl]pyrrolo[3,2-b]pyridine-5-carboxamide] | 0.00689 µM | 71%
Cn1ccc2nc(C(=O)NC3CCOCC3)cc(Cc3ccc(-c4cscn4)cc3)c21 [Compound 451, 1-methyl-N-tetrahydropyran-4-yl-7-[(4-thiazol-4-ylphenyl)methyl]pyrrolo[3,2-b]pyridine-5-carboxamide] | 0.184 µM | 71.7%
Cn1ccc2nc(C(=O)NC3CC4(COC4)C3)cc(Cc3ccc(-c4cscn4)cc3)c21 [Compound 452, 1-methyl-N-(2-oxaspiro[3.3]heptan-6-yl)-7-[(4-thiazol-4-ylphenyl)methyl]pyrrolo[3,2-b]pyridine-5-carboxamide] | 0.339 µM | 71.9%
